Results on nine compounds are retold here after patent US11548884B2, “Cyclic amidine compounds for the treatment of autoimmune disease” (Hoffmann-La Roche Inc., priority 2018, dated 2023).

The target in the experiment is T1, human TLR9 (Homo sapiens, UniProt Q9NR96).
T1 sequence (Q9NR96 26-1032): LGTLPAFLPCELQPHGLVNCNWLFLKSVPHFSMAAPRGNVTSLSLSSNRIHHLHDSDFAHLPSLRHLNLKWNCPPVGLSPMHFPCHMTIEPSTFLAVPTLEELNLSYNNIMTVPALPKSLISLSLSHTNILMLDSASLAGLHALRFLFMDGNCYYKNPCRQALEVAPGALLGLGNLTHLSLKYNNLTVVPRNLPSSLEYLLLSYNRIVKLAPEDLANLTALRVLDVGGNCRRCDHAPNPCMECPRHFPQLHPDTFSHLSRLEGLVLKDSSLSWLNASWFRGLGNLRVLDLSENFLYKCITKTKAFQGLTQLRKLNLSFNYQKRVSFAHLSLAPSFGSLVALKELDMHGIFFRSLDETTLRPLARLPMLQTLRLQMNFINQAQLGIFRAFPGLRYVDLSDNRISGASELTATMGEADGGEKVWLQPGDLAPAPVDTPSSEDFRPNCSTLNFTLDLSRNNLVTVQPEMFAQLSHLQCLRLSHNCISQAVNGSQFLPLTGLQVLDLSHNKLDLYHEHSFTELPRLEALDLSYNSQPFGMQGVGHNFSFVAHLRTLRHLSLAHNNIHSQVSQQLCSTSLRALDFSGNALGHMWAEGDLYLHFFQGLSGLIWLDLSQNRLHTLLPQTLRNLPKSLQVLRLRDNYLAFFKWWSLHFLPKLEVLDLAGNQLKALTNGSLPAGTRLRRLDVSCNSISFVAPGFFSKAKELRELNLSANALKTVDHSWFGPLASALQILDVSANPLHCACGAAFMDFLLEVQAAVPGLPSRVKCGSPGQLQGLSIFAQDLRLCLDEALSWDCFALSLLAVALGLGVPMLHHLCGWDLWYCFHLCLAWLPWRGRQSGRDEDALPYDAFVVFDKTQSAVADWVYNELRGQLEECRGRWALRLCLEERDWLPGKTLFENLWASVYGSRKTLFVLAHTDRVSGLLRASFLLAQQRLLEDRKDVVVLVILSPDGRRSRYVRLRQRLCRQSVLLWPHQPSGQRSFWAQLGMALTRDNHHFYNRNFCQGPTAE
Description: HEK293-Blue-hTLR-9 cells assay (SEAP reporter, ODN2006 stimulation). It counts as cell-based. Particulars: HEK293-Blue-hTLR9 cells, ODN2006 ligand, 20 h incubation. The procedure:
The following tests were carried out in order to determine the activity of the compounds of formula (I) in HEK293-Blue-hTLR-7/8/9 cells assay.
HEK293-Blue-hTLR-9 Cells Assay:
A stable HEK293-Blue-hTLR-9 cell line was purchased from InvivoGen (Cat. #: hkb-htlr9, San Diego, Calif., USA). These cells were originally designed for studying the stimulation of human TLR9 by monitoring the activation of NF-κB. A SEAP (secreted embryonic alkaline phosphatase) reporter gene was placed under the control of the IFN-β minimal promoter fused to five NF-κB and AP-1-binding sites. The SEAP was induced by activating NF-κB and AP-1 via stimulating HEK-Blue hTLR9 cells with TLR9 ligands. Therefore the reporter expression was declined by TLR9 antagonist under the stimulation of a ligand, such as ODN2006 (Cat. #: tlrl-2006-1, Invivogen, San Diego, Calif., USA), for incubation of 20 h. The cell culture supernatant SEAP reporter activity was determined using QUANTI-Blue™ kit (Cat. #: rep-qb1, Invivogen, San Diego, Calif., USA) at a wavelength of 640 nm, a detection medium that turns purple or blue in the presence of alkaline phosphatase.
HEK293-Blue-hTLR9 cells were incubated at a density of 250,000˜450,000 cells/mL in a volume of 170 μL in a 96-well plate in Dulbecco's Modified Eagle's medium (DMEM) containing 4.5 g/L glucose, 50 U/mL penicillin, […], 2 mM L-glutamine, 10% (v/v) heat-inactivated fetal bovine serum with addition of 20 μL test compound in a serial dilution in the presence of final DMSO at 1% and 10 μL of 20 uM ODN2006 in above DMEM, perform incubation under 37° C. in a CO2 incubator for 20 h. Then 20 μL of the supernatant from each well was incubated with 180 μL Quanti-blue substrate solution at 37° C. for 2 h and the absorbance was read at 620˜655 nm using a spectrophotometer. The signalling pathway that TLR9 activation leads to downstream NF-κB activation has been widely accepted, and therefore similar reporter assay was modified for evaluating TLR9 antagonist.

Turning to `C[C@@H]1CN(c2ccc(C#N)c3ncccc23)C[C@H](C2=Nc3cccc(N4CCNCC4)c3CN2)O1` [Example 6, 5-[(2R,6R)-2-methyl-6-(5-piperazin-1-yl-3,4-dihydroquinazolin-2-yl)morpholin-4-yl]quinoline-8-carbonitrile], 50 nM corresponded to half-maximal inhibition (IC50).

On to `C[C@@H]1CN(c2ccc(C#N)c3ncccc23)C[C@H](C2=Nc3ccc(N4CCNCC4)cc3CN2)O1` [Example 7, 5-[(2R,6R)-2-methyl-6-(6-piperazin-1-yl-3,4-dihydroquinazolin-2-yl)morpholin-4-yl]quinoline-8-carbonitrile], for which the IC50 was 102 nM. This IC50 is about 2-fold higher than that of the compound before.

The compound `C[C@@H]1CN(c2ccc(C#N)c3ncccc23)C[C@H](C2=Nc3cc(N4CCNCC4)ccc3CN2)O1` [Example 8, 5-[(2R,6R)-2-methyl-6-(7-piperazin-1-yl-3,4-dihydroquinazolin-2-yl)morpholin-4-yl]quinoline-8-carbonitrile] showed an IC50 of 65 nM.

In turn, `C[C@@H]1CN(c2ccc(C#N)c3ncccc23)C[C@H](C2=Nc3c(cccc3N3CCNCC3)CN2)O1` [Example 9, 5-[(2R,6R)-2-methyl-6-(8-piperazin-1-yl-3,4-dihydroquinazolin-2-yl)morpholin-4-yl]quinoline-8-carbonitrile] showed an IC50 of 97 nM. Compound `C[C@@H]1CN(c2ccc(C#N)c3ncccc23)C[C@H](C2=Nc3cccc(N4CCN(C)CC4)c3CN2)O1` [Example 12, 5-[(2R,6R)-2-methyl-6-[5-(4-methylpiperazin-1-yl)-3,4-dihydroquinazolin-2-yl]morpholin-4-yl]quinoline-8-carbonitrile] showed an IC50 of 42 nM. This IC50 is about 2.3-fold lower than that of the compound before. Then `C[C@@H]1CN(c2ccc(C#N)c3ncccc23)C[C@H](C2=Nc3cccc(N4CCC5(CCNC5)C4)c3CN2)O1` (stereo partly drawn) [Example 13, 5-[(2R,6R)-2-[5-(2,7-diazaspiro[4.4]nonan-2-yl)-3,4-dihydroquinazolin-2-yl]-6-methyl-morpholin-4-yl]quinoline-8-carbonitrile], with 313 nM. Then `C[C@@H]1CN(c2ccc(C#N)c3ncccc23)C[C@H](C2=Nc3cccc(C4=CCNCC4)c3CCN2)O1` [Example 16, 5-[(2R,6R)-2-methyl-6-[6-(1,2,3,6-tetrahydropyridin-4-yl)-4,5-dihydro-3H-1,3-benzodiazepin-2-yl]morpholin-4-yl]quinoline-8-carbonitrile], with 64 nM. To `C[C@@H]1CN(c2ccc(C#N)c3ncccc23)C[C@H](C2=Nc3ccc(N4CCNCC4)cc3CCN2)O1` [Example 17, 5-[(2R,6R)-2-methyl-6-(7-piperazin-1-yl-4,5-dihydro-3H-1,3-benzodiazepin-2-yl)morpholin-4-yl]quinoline-8-carbonitrile] belongs 49 nM; to `C[C@@H]1CN(c2ccc(C#N)c3ncccc23)C[C@H](C2=Nc3cccc(C4CCNCC4)c3CN2)O1` [Example 18, 5-[(2R,6R)-2-methyl-6-[5-(4-piperidyl)-3,4-dihydroquinazolin-2-yl]morpholin-4-yl]quinoline-8-carbonitrile], 90 nM.

What is called IC50 is the concentration needed to halve the response being measured.
